“And” between values parts separate entries of the source, which are not always exact repeats. Identical values can stand only once. Like-named read-outs stand apart in the source and are kept apart here.
Key:
HDAC 1 = target: T1, HDAC 1 (Homo sapiens, UniProt Q13547); experiment: in vitro HDAC assay with recombinant HDAC proteins (Fluor de Lys substrate); format: biochemical; details: recombinant protein purified from High 5 insect cells; read-out: IC50 for HDAC 1 (class I)
T1 construct: made in house; host or cells: High5 insect cells
Description: (§1) IC50 values may be calculated from dose-response curves. […] Biochem J. Aug. 15, 2000;350 Pt 1:199-205.

HDAC 6 = HDAC 6 (Homo sapiens, UniProt Q9UBN7); experiment: biochemical
Description: (§2) in vitro HDAC assay for determination of IC50 values: The determination of histone deacetylase activity in recombinant HDAC proteins derived from expression in High5 insect cells is based on the specific deacetylation of an artificial substrate (Fluor de Lys, Biomol). The substrate turn over may be detected and quantified by fluorometry. By addition of a HDAC inhibitor the hydrolysis of the substrate is constrained resulting in a decreased fluorometric signal. IC50 values may be calculated from dose-response curves. The assay is separated in two steps: in the first step the substrate (Fluor de Lys/Biomol KI-104) is hydrolysed by histone deacetylases. In step two HDAC activity is terminated and the fluorophore is activated by the addition of a developer (Developer/Biomol KI-105). […] 25 μl substrate (1:100 dilution in reaction buffer) per well are added to start the reaction. A negative control without histone deacetylase activity and a positive control without HDAC inhibitor are treated likewise. The reaction is stopped after 15-60 min. by adding 50 μl developer (1:20 dilution in reaction buffer). After another 15 min. incubation time at room temperature the fluorescence signal is stable for 60 min and may be detected by a fluorescence reader (excitation filter: 390 nm, emission filter: 460 nm). […]

HDAC 8 (Homo sapiens) = experiment: biochemical
Description: as §2

HDAC class I = target: T2, HDAC class I (Homo sapiens, UniProt Q13547); experiment: in vitro HDAC assay, IC50 stated for the enzyme class; format: biochemical; details: class I enzyme inhibition
T2 construct: made in house; host or cells: High5 insect cells
Description: as §1

[1] = test system: PC3 prostate carcinoma cells; experiment: PC-3 mouse xenograft model; format: in vivo
Protocol: 24 athymic Nu/Nu^−/− mice were injected with 1×10^6 PC3 prostate carcinoma cells in 100 μl PBS into the right flank (8 animals per group). Tumors were allowed to grow for 4 days. Animals were treated with PBS (control), 2×200 mg/kg/d or 2×400 mg/kg/d, respectively, from day 5 until day 21. Tumor volumes were measured every 3-4 days.
Mouse Xenograft Model: 24 athymic Nu/Nu^−/− (Harlan) mice were injected with 1×10^6 PC3 prostate carcinoma cells in 100 μl PBS into the right flank (8 animals per group). Tumors were allowed to grow for 4 days. […] Tumor volumes were measured every […].

Colo320DM cell line = experiment: SRB proliferation assay, interval treatment; format: cell-based; details: Homo sapiens, COLO 320DM, 1 mM VPA, read-out: growth inhibition
Protocol: (§3) SRB proliferation assay: The reduction in cellular biomass was measured by SRB-assay. For this assay cells were seeded in 96 well culture dishes at densities between 3000 and 8000 cells per well. […] Cells were fixed with cold Trichloracetat (TCA) producing a final TCA concentration of 10%. After 1 hour of incubation at 4° C. the cells were washed five times with water and air dried. Fixed cells were stained for 30 minutes with 0.4% (wt/vol) Sulforhodamine B (SRB) dissolved in 1% acetic acid and washed four times with 1% acetic acid to remove unbound dye. After air drying bound dye was solubilized with 10 mM unbuffered Tris base (pH 10.5) for 5 minutes. Optical densities (OD) were read on a Molecular Devices Versa Max tunable microplate reader at 520-550 nm. Four test wells for each dose-response were set in parallel with 12 control wells per cell line. Measurement of the cell population density at time 0 (T0; the time at which the drug was added) was also made from 12 reference wells of cells fixed with TCA just prior to drug addition to the test plates. Background OD of complete medium with 5% FBS fixed and stained as described above was also determined in 12 separate wells. From the unprocessed OD data from each microtiter plate the background OD measurements (i.e. OD of complete medium plus stain and OD of cells at T0) were subtracted thus giving the reduction of cellular biomass of the cells.

PC-3 cell line = experiment: SRB proliferation assay, interval treatment; format: cell-based; details: Homo sapiens, read-out: growth inhibition
Protocol: as §3

HDAC 2 = experiment: Western blot of peripheral blood cells of patients, phase I/II trial; format: in vivo, human; details: patients with serum levels above the therapeutic plasma concentration
Protocol: (§4) Blood samples were taken before and 6 h, 24 h as well as 48 h after treatment start.
(§5) Whole cell extracts were prepared by lysis of cells in RIPA buffer plus protease inhibitors for denaturing SDS gel electrophoresis on a 12% denaturing polyacrylamide gel. Acetylated histones H3 and H4 and marker protein HDAC 2 were detected by Western blot analysis using an anti-acetyl Histone H3 antibody (Upstate, #06-942), an anti-acetyl Histone H4 antibody (clone T25; patent application EP 02.021984.6), and an anti-HDAC 2 antibody (SCBT, SC-7899). As an equal loading control PVDV membranes were stained with Coomassie.

Histone H3 and H4 = experiment: as above; format: in vivo, human
Protocol: as §4, §5

Histone H3 in 293T cells = experiment: Western blot of 293T cells treated by release-pattern schemes; format: cell-based
Protocol: Whole cell extracts were prepared by lysis of cells in RIPA buffer plus protease inhibitors for denaturing SDS gel electrophoresis on a 12% denaturing polyacrylamide gel. Acetylated histones H3 were detected by Western blot analysis using an anti-acetylated H3 antibody (Upstate, #06-942).

T1 sequence (Q13547 whole entry): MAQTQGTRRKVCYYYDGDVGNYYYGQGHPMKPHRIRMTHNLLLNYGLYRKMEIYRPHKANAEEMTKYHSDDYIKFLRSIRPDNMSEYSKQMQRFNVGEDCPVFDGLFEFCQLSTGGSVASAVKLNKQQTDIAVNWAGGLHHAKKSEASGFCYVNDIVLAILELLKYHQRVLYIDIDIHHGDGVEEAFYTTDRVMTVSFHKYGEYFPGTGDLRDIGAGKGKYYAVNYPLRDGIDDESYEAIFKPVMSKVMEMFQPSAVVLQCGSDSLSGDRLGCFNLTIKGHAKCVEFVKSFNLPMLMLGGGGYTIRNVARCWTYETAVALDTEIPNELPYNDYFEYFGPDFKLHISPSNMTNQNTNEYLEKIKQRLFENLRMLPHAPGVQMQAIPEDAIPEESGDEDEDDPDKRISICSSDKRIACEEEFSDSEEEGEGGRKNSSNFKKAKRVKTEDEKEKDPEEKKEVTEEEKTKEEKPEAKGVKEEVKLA
T2 sequence (Q13547 whole entry): as above
Chain of HDAC 8 (Homo sapiens) (Q9UBN7 whole entry): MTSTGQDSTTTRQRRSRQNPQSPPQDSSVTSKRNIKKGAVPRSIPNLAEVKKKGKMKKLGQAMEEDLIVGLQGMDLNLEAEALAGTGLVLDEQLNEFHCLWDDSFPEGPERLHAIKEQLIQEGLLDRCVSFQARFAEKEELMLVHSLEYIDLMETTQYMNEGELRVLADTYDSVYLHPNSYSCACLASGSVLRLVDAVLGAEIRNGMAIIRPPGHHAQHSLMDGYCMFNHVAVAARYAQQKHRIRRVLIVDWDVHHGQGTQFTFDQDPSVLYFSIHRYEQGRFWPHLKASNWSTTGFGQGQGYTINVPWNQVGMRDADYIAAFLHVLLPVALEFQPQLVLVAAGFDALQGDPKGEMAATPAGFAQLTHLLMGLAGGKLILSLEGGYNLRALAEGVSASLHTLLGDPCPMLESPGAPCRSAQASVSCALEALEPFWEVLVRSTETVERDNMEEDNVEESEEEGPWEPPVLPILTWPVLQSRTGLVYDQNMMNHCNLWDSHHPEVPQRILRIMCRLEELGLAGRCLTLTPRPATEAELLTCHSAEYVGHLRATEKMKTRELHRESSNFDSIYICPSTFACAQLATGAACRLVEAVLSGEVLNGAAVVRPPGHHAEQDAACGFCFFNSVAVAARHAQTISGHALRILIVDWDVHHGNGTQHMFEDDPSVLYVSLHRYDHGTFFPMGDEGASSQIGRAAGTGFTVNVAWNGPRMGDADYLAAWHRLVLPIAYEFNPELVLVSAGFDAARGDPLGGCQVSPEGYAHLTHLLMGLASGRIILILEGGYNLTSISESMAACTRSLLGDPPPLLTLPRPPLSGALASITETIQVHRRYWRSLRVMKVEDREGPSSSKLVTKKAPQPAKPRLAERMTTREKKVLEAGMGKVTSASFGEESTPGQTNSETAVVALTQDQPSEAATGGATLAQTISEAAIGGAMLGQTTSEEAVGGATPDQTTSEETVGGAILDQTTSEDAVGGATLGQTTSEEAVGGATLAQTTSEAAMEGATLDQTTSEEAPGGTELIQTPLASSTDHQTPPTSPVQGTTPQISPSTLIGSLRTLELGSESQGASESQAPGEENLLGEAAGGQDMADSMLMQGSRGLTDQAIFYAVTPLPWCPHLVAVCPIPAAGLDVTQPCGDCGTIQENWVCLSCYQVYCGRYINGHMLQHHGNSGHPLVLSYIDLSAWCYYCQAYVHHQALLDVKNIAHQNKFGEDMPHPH
Chain of HDAC 6 (Q9UBN7 whole entry): as above

With `CCCC(CCC)C(=O)O` [VPA, 2-propyl-pentanoic acid] the IC50 (HDAC 1) was 200 µM and ~200 µM, the IC50 (HDAC 6) was 1100 µM and the IC50 (HDAC 8 (Homo sapiens)) was roughly 1100 µM. For the same compound, the IC50 (HDAC class I) was ~200 µM and 200 µM, the anti-tumoral effect ([1]; 200 mg/kg/d twice daily, day 5 until day 21) was “no anti-tumoral effect” and the “PC-3 tumor volume reduction” value ([1]; 400 mg/kg/d twice daily, day 5 until day 21, compared to PBS control) was greater than 25%. The inhibition at 1000 µM (Colo320DM cell line; 2×8 hours exposure, 40 h treatment free interval ("8 h d")) was 27%, the inhibition at 1000 µM (Colo320DM cell line; 2×20 hours exposure, 26 h treatment free interval ("20 h d")) was 57% and the inhibition at 1000 µM (Colo320DM cell line; 66 h, continuous exposure 66 h) was 80%. It also gave an inhibition at 1000 µM (PC-3 cell line; PC-3, 66 h, PC3, 1 mM VPA, continuous exposure 66 h) of 57%, an inhibition at 1000 µM (PC-3 cell line; PC-3, PC3, 1 mM VPA, 2×8 hours exposure, 40 h treatment free interval ("8 h d")) of 26% and an inhibition at 1000 µM (PC-3 cell line; PC-3, PC3, 1 mM VPA, 2×20 hours exposure, 26 h treatment free interval ("20 h d")) of 43%. For the same compound, the “regulation of the marker protein HDAC 2” value (HDAC 2) was “down regulation”, the “correlation of VPA serum peak levels with induction of histone hyperacetylation” value (Histone H3 and H4; peripheral blood cells before and 6 h, 24 h, 48 h after treatment start, intravenous VPA) was “clear correlation” and the “histone H3 and H4 hyperacetylation” value (Histone H3 and H4; peripheral blood cells, patients with serum levels above the therapeutic plasma concentration) was “could be detected”. For the same compound, the “degree of histone hyperacetylation” value (Histone H3 in 293T cells; VPA above IC50 for class I HDAC, exposure 6 h, 15 h, 24 h) was “strongly enhanced when the period of exposure is prolonged” and the “degree of histone hyperacetylation induction, "fast release" or "slow release" exposure each on their own compared with bi-phasic PEAC exposure” value (Histone H3 in 293T cells; Western blot) was “less effective”.

Source: patent publication US20070232528A1, “Formulation comprising histone deacetylase inhibitors” (priority 2004, published 2007)
